{"source": "PubChem BioAssay AID2060504", "about": "(Molecular Pharmacology Branch, DTP, NCI, 2025)", "test_system": "636577-100-R-J1-PDC complex spheroid viability", "assay": "Anticancer human tumor 636577-100-R-J1-PDC patient-derived endometrial adenocarcinoma cell line growth inhibition [GQUAD]", "details": "for IC50: curve of first compound; for viability, T/C: stronger effect = lower value", "from_the_text": "DNA G-quadruplex Stabilizer Agents in Combinations in Complex Spheroids\nA high-throughput screen of multi-cell type tumor spheroids was designed to identify active combinations of DNA G-quadruplex stabilizer agents and targeted small molecules. Complex spheroids include a stromal component modeled by human endothelial cells (HUVEC) and fibroblasts modeled by human mesenchymal stem cells (MSCs). The concentration ranges selected for each drug and investigational agent were based upon clinically achievable concentrations if the clinical Cmax of the agent was known.\nCompounds. The drugs and investigational agents: pidnarulex (CX-5461; NSC782164), APTO-253 (NSC789042), BRACO-19 (NSC847499), peposertib (NSC802822), ceralasertib (NSC780249), elimusertib (NSC800525), camonsertib (NSC841442), AZD-1390 (NSC803789), olaparib (NSC753686), talazoparib (NSC767125), ART-558 (NSC835418), sotorasib (NSC818433), MRTX-1133 (NSC836407), SN-38 (NSC673596), topotecan (NSC609699), etoposide (NSC141540), doxorubicin (NSC123127), gemcitabine (NSC613327), 5-fluorouracil (NSC19893), paclitaxel (NSC125973), vemurafenib (NSC761431), panobinostat (NSC761190), R-306465 (JNJ-16241199; NSC773264), adavosertib (NSC754352), TP-3654 (NSC805149), carboplatin (NSC241240), KSQ-4279 (NSC840948), and staurosporine (NSC755774) were obtained from the National Cancer Institute (NCI) Developmental Therapeutics Program Chemical Repository (34). The FDA-approved anticancer drug set is available from the NCI Developmental Therapeutics Program. […] The stock solutions were prepared in dimethyl sulfoxide (DMSO, Sigma-Aldrich, St. Louis, MO, cat. D2650) at 800-fold the tested concentration and stored at -70 degrees C prior to their use. All drugs and investigational agents were tested over a range starting from a high concentration at or near the clinical Cmax and decreasing in half-log increments. If the clinical Cmax for an agent had not been determined, the highest concentration tested was 10 microM.\n2.3 Cell Culture. All cells were maintained in an incubator at 37 degrees C and 5% CO2 with 95% humidity. The PDC lines were cultured according to standard operating procedures established by the NCI PDMR. All PDCs were thawed and cultured in Matrigel-coated flasks prepared with a working solution of 1X Ham's F-12 nutrient mix, without supplementation (Invitrogen, cat. 11765054), 100 U/mL penicillin-streptomycin (Invitrogen, cat. 15140122), and 2.5% Matrigel (Corning Inc., cat. 354248) for the first three passages. The 857933-349-R-J2-PDC line was cultured in 6C/Colon 1B media, which includes advanced DMEM/F-12 (Thermo Fisher Scientific, cat. 12634028), 10 mM HEPES (Thermo Fisher Scientific, cat. 15630080), 1X GlutaMAX supplement (Thermo Fisher Scientific, cat. 35050061), 0.1 mg/mL primocin (InvivoGen, cat. ant-pm-2), 10% defined fetal bovine serum, heat inactivated (HyClone Laboratories Inc., cat. SH30070.03HI), 50% L-WRN conditioned media (ATCC, cat. CRL-3276), 1.25 mM N-Acetyl-L-cysteine (Sigma-Aldrich, cat. A9165), 10 mM nicotinamide (Sigma-Aldrich, cat. N0636), 1X B-27 supplement (Thermo Fisher Scientific, cat. 17504044), 1X N-2 supplement (Thermo Fisher Scientific, cat. 17502048), 10 microM Y-27632 dihydrochloride (Tocris Bioscience, cat. 1254), and 50 ng/mL human EGF recombinant protein (Thermo Fisher Scientific, cat. PHG0311). The 485176-168-R4-J1-PDC line was cultured in Panc media, which includes all 6C/Colon 1B media components plus 100 ng/mL human FGF-10 (Thermo Fisher Scientific, cat. 100-26), 500 nM SB-431542 (Selleckchem, cat. S1067), and gastrin (Tocris, cat. 3006).\n[…]"}
{"molecule": "CC(C)n1c(=O)n(C)c2cnc3cc(F)c(-c4ccc(OCCCN5CCCCC5)nc4)cc3c21", "note": "+ CN(C)c1ccc(Nc2c3ccc(NC(=O)CCN4CCCC4)cc3nc3cc(NC(=O)CCN4CCCC4)ccc23)cc1;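 also: viability read after seven days of drug exposure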;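 as to viability, T/C: luminescence signal used as a proxy for viable cells; 100% = DMSO vehicle control wells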", "values": [{"measurement": "IC50", "setting": "second compound 0.0316 µM", "result": "> 10", "unit": "µM"}, {"measurement": "IC50", "setting": "second compound 0.1 µM", "result": "> 10", "unit": "µM"}, {"measurement": "IC50", "setting": "second compound 0.316 µM", "result": 8.49, "unit": "µM"}, {"measurement": "IC50", "setting": "second compound 1 µM", "result": 4.9, "unit": "µM"}, {"measurement": "IC50", "setting": "second compound 3.16 µM", "result": "< 0.0316", "unit": "µM"}, {"measurement": "IC50", "setting": "second compound 10 µM", "result": "< 0.0316", "unit": "µM"}, {"measurement": "viability, T/C", "setting": "second compound 0.0316 µM, first compound 0.0316 µM", "result": 121, "unit": "%"}, {"measurement": "viability, T/C", "setting": "second compound 0.0316 µM, first compound 0.1 µM", "result": 101, "unit": "%"}, {"measurement": "viability, T/C", "setting": "second compound 0.0316 µM, first compound 0.316 µM", "result": 127, "unit": "%"}, {"measurement": "viability, T/C", "setting": "second compound 0.0316 µM, first compound 1 µM", "result": 49.5, "unit": "%"}, {"measurement": "viability, T/C", "setting": "second compound 0.0316 µM, first compound 3.16 µM", "result": 93.8, "unit": "%"}, {"measurement": "viability, T/C", "setting": "second compound 0.0316 µM, first compound 10 µM", "result": 53.5, "unit": "%"}, {"measurement": "viability, T/C", "setting": "second compound 0.1 µM, first compound 0.0316 µM", "result": 128, "unit": "%"}, {"measurement": "viability, T/C", "setting": "second compound 0.1 µM, first compound 0.1 µM", "result": 102, "unit": "%"}, {"measurement": "viability, T/C", "setting": "second compound 0.1 µM, first compound 0.316 µM", "result": 109, "unit": "%"}, {"measurement": "viability, T/C", "setting": "second compound 0.1 µM, first compound 1 µM", "result": 74.9, "unit": "%"}, {"measurement": "viability, T/C", "setting": "second compound 0.1 µM, first compound 3.16 µM", "result": 82.1, "unit": "%"}, {"measurement": "viability, T/C", "setting": "second compound 0.1 µM, first compound 10 µM", "result": 52.4, "unit": "%"}, {"measurement": "viability, T/C", "setting": "second compound 0.316 µM, first compound 0.0316 µM", "result": 67.6, "unit": "%"}, {"measurement": "viability, T/C", "setting": "second compound 0.316 µM, first compound 0.1 µM", "result": 81.7, "unit": "%"}, {"measurement": "viability, T/C", "setting": "second compound 0.316 µM, first compound 0.316 µM", "result": 103, "unit": "%"}, {"measurement": "viability, T/C", "setting": "second compound 0.316 µM, first compound 1 µM", "result": 63.6, "unit": "%"}, {"measurement": "viability, T/C", "setting": "second compound 0.316 µM, first compound 3.16 µM", "result": 71.7, "unit": "%"}, {"measurement": "viability, T/C", "setting": "second compound 0.316 µM, first compound 10 µM", "result": 46.6, "unit": "%"}, {"measurement": "viability, T/C", "setting": "second compound 1 µM, first compound 0.0316 µM", "result": 60, "unit": "%"}, {"measurement": "viability, T/C", "setting": "second compound 1 µM, first compound 0.1 µM", "result": 67.8, "unit": "%"}, {"measurement": "viability, T/C", "setting": "second compound 1 µM, first compound 0.316 µM", "result": 75.9, "unit": "%"}, {"measurement": "viability, T/C", "setting": "second compound 1 µM, first compound 1 µM", "result": 57, "unit": "%"}, {"measurement": "viability, T/C", "setting": "second compound 1 µM, first compound 3.16 µM", "result": 61.6, "unit": "%"}, {"measurement": "viability, T/C", "setting": "second compound 1 µM, first compound 10 µM", "result": 33.5, "unit": "%"}, {"measurement": "viability, T/C", "setting": "second compound 3.16 µM, first compound 0.0316 µM", "result": 39, "unit": "%"}, {"measurement": "viability, T/C", "setting": "second compound 3.16 µM, first compound 0.1 µM", "result": 36.2, "unit": "%"}, {"measurement": "viability, T/C", "setting": "second compound 3.16 µM, first compound 0.316 µM", "result": 30.2, "unit": "%"}, {"measurement": "viability, T/C", "setting": "second compound 3.16 µM, first compound 1 µM", "result": 27, "unit": "%"}, {"measurement": "viability, T/C", "setting": "second compound 3.16 µM, first compound 3.16 µM", "result": 20.6, "unit": "%"}, {"measurement": "viability, T/C", "setting": "second compound 3.16 µM, first compound 10 µM", "result": 14.5, "unit": "%"}, {"measurement": "viability, T/C", "setting": "second compound 10 µM, first compound 0.0316 µM", "result": 7, "unit": "%"}, {"measurement": "viability, T/C", "setting": "second compound 10 µM, first compound 0.1 µM", "result": 5.49, "unit": "%"}, {"measurement": "viability, T/C", "setting": "second compound 10 µM, first compound 0.316 µM", "result": 4.48, "unit": "%"}, {"measurement": "viability, T/C", "setting": "second compound 10 µM, first compound 1 µM", "result": 2.77, "unit": "%"}, {"measurement": "viability, T/C", "setting": "second compound 10 µM, first compound 3.16 µM", "result": 2.25, "unit": "%"}, {"measurement": "viability, T/C", "setting": "second compound 10 µM, first compound 10 µM", "result": 0.79, "unit": "%"}]}
